Measurements from patent US5331090A, “CR2 ligand compositions and methods for modulating immune cell functions” (California Institute of Biological Research, priority 1989, dated 1994).
No end group written: not given here.

Target: T1, CR2 receptor on Raji cells (Homo sapiens, UniProt P20023)
T1 construct: endogenous in cells; host or cells: Raji cells (human B lymphoblastoid, ATCC CCL 86)
T1 sequence (P20023 21-1033): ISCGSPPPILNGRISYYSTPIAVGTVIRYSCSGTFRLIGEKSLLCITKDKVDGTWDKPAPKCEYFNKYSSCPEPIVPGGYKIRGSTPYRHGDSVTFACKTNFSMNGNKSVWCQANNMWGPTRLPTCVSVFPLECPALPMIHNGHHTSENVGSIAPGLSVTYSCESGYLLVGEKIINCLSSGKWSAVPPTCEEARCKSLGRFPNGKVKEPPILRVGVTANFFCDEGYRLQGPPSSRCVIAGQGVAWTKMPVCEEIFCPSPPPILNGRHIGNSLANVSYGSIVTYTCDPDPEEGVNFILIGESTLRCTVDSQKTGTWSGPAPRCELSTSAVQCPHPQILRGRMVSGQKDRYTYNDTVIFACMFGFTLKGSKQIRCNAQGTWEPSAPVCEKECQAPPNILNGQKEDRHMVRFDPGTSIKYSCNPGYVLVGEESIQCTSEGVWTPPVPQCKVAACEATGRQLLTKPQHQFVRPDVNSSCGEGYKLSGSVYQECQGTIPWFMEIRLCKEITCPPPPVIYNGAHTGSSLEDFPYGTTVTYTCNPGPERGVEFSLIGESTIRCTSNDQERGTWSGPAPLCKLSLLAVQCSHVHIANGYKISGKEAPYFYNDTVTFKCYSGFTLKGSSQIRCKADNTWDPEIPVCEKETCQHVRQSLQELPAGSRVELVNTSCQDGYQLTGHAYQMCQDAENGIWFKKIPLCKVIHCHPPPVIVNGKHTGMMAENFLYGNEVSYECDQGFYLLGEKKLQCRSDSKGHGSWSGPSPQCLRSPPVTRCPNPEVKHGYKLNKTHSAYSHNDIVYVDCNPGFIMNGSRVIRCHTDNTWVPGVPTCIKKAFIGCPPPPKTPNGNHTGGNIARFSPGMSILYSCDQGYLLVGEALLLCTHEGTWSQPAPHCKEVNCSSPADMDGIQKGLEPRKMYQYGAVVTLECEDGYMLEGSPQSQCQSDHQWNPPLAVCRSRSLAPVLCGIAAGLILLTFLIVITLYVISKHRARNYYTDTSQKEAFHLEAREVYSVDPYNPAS
Experiment: Inhibition of direct binding of C3-coated Zymosan to cells (rosette count)
Settings: polypeptide zero to 200 ug in 100 ul, 37 C 30 min, amount behind the value not stated
Procedure: Fresh blood from a healthy donor was collected and maintained at room temperature for 2 hours. Then the blood was centrifuged at 2000 x g for about 10 min and the resulting supernatant was collected. Five mg of Zymosan A particles (Sigma Chemical Co., St. Louis, Mo.) were boiled for 30 min in 20 ml of 150 mM NaCl and washed three times in phosphate-buffered saline (PBS) to form activated Zymosan. One mg of activated Zymosan particles was admixed with 0.5 ml of blood supernatant and maintained at 37 C. for 30 min, and then was washed 3 times in PBS. The washed particles were then resuspended in PBS at a concentration of 0.5 mg/ml to form a C3 -coated Zymosan composition.
Cultures containing 10^5 Raji or HSB2 cells were admixed with varying amounts (zero to 200 ug) of the polypeptides shown in Table 2 in a volume of 100 microliters (ul) of culture medium and the admixture was maintained at 37C for 30 min to allow CR2 ligand polypeptides to bind any CR2 receptor present on the cells. Thereafter, 50 ul of C3 -coated Zymosan composition was added to each culture, the cultures were subjected to centrifugation for 1 min at 600×g and then maintained at 37 C. for 30 min. The maintained cultures were then washed with prewarmed culture medium to rinse off non-bound particles. Washed cultures were observed using a microscope to detect and count the number of particles (rosettes) attached per cell. More than 3 rosettes per cell was counted as C3 specific binding. Inhibition is expressed as the percent decrease in bound rosettes when comparing binding in the presence or absence of admixed polypeptide.

Substance	Inhibition of direct binding of C3-coated Zymosan to cells (percent decrease in bound rosettes)
NSGVEA [NSGVEA]	35%
LYNVEAT [LYNVEAT]	70%
SRRGDMS [SRRGDMS]	0%
